Measured values published in US20130281504A1, “Reduction of Microglia-Mediated Neurotoxicity by KCa3.1 Inhibition” (THE REGENTS OF THE UNIVERSITY OF CALIFORNIA, priority 2010, published 2013).
Where “and” joins values, the source holds several entries; their conditions need not be identical. Equal values may be shown once.

Key:
microglia = assay: AβO-induced microglia proliferation/activation (cell number); format: cell-based, mouse; details: soluble AD hippocampus extracts
NFκB = NFκB assay in microglia; format: cell-based, mouse; details: 2 hrs; 20 μM doxycycline, 1 μM TRAM-34; FIG. 2E
Method: The detection of cells with active NFκB was performed according to the method described by Franciosi, S., et al.; (2006) J Neurosci 26, 11652-11664. Briefly, microglia were plated as described above and treated with activators for 2 hrs. Cells were fixed and stained with anti-NF-κBp65 antibody (1:250, Chemicon) and with the nuclear dye DAPI.

KCa3.1 = target: T1, KCa3.1 (Mus musculus, UniProt O89109); assay: Whole-cell patch-clamp of mouse microglia KCa currents; format: cell-based; details: 1 μM TRAM-34; voltage-ramps −120 to +40 mV; FIG. 4A
T1 construct: endogenous in cells; host or cells: primary mouse microglia harvested from the astrocyte feeder layer
T1 sequence (O89109 whole entry): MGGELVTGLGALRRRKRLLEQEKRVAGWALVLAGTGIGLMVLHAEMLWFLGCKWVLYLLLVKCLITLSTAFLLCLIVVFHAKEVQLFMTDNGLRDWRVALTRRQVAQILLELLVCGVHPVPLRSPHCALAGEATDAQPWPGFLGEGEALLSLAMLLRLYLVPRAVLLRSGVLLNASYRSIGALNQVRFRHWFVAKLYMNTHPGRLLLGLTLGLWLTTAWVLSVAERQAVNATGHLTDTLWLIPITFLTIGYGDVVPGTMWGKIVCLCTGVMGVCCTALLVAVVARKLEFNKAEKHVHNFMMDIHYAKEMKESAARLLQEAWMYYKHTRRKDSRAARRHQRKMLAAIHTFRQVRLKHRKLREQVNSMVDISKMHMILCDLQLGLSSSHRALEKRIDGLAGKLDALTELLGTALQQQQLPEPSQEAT
Method: Microglia, that were “floating off” from their feeding astrocyte layer, were harvested with a pipette, washed, attached to poly-L-lysine coated cover-slips, and then studied in the whole-cell mode of the patch-clamp technique with an EPC-10 HEKA amplifier. The pipette solution contained 145 mM K^+ aspartate, 2 mM MgCl2, 10 mM HEPES, 10 mM K2EGTA and 8.5 mM CaCl2 (1 μM free Ca^2+), pH 7.2, 290 mOsm. To reduce chloride “leak” currents, we used a Na^+ aspartate external solution containing 160 mM Na^+ aspartate, 4.5 mM KCl, 2 CaCl2, 1 mM MgCl2, 5 mM HEPES, pH 7.4, 300 mOsm. K^+ currents were elicited with voltage ramps from −120 to 40 mV of 200 ms duration applied every 10 s. […] Cell capacitance, a direct measurement of cell surface area, was continuously monitored during recordings. KCa3.1 current density was determined by dividing the TRAM-34-sensitive slope conductance by the cell capacitance.

hippocampal neurons = assay: Indirect neurotoxicity of conditioned medium from AβO-treated microglia on hippocampal neurons; format: cell-based, mouse; details: 25% CM, 24 hrs
Method: Cultures were washed extensively and changed to the Neurobasal medium with B27 supplement (NB/B27, Invitrogen) without serum and cultured for another 24 hrs. The NB/B27-based microglia CMs were collected, briefly centrifuged, and used immediately or frozen for future uses.
Hippocampal neuronal cultures were prepared from newborn wild type C57BL/6J mice according to the method of Xiang et al (26). Neurons were cultured in NB/B27 at a density of 2.5×10^5 cells/well in 12-well plates or 8×10^5 cells/well in 6-well plates for at least 14 days before they were treated with microglia CM.
Hippocampal neurons were prepared as described above and were plated onto 96-well plate at a density of 6×10^4 cells/well and cultured for 14 days. CM from microglia cultures was added onto neurons with indicated dilutions, and cultures were incubated for 24 hrs.
For immunofluorescent staining of neurons, cultures were fixed in 4% paraformaldehyde and stained with anti-PSD95 (1:200, Cell Signaling), anti-MAP2 (1:500, Chemicon) and anti-acetylated α-tubulin (1:250, Zymed). […] Immunostained images were observed under a Nikon Eclipse E600 microscope and photographed by a digital camera (SPOT RTke, SPOT Diagnostics, Sterling Heights, Mich.).
For quantification of the PSD95-immunoreactive puncta along the dendrites, photomicrographs of PSD95 immunostained cultures were randomly taken from each culture condition. The images were transformed to 8 bit gray scale and analyzed with the Image J program. The number of puncta in each photomicrograph was counted and normalized by dendritic length. The photography and analysis were conducted in an investigator-blinded manner
Lysates were briefly sonncated and cleared by centrifugation at 50,000 rpm for 10 min. Equivalent amounts of protein were analyzed by Tris/HCL gel electrophoresis. Proteins were transferred to polyvinylidene difluoride membranes and probed with antibodies. Visualization was performed using enhanced chemiluminescence (ECL, Amersham Pharmacia, Piscataway, N.J.).

[1] = Plasma protein binding by ultrafiltration; format: in vitro ADME, rat; details: rat plasma spiked with 50 and 100 μM
Method: (§1) The centrifugate (=free TRAM-34) was directly analyzed for TRAM-34 by HPLC-MS. The retentate was collected by inverting the filter into an Eppendorf tube and spinning at 14000 rpm for 15 min.

plasma protein = assay: Plasma protein binding by ultrafiltration; format: in vitro ADME, rat
Method: as §1

[2] = Physiological parameters by I-STAT in venous blood of MCAO rats; format: in vivo, rat; details: ±SD
Method: […] […] Slices were then fixed in 10% buffer formalin embedded in paraffin and sectioned at 5 Sections were stained with hematoxylin & eosin and scanned. The resulting jpg images were analyzed in Adobe Photoshop CS3 for infarct area using the Magnetic Lasso tool to outline the area and the Histogram tool to determine the number of pixels in the respective area. Percent infarct for each slice was calculated as: (pixels in […]/pixels in whole control hemisphere)×100. Percentage of total infarct area of whole hemisphere was calculated as: (summation of pixels in infarct from 8 slices/summation of pixels in whole control hemisphere from 8 slices)×100. The degree of brain shrinkage was calculated from the same data.

[3] = mice, previously determined; cited from earlier work
[4] = system: experimental autoimmune encephalomyelitis (EAE); details: mice; cited from earlier work
[5] = After Reperfusion, TRAM-34 10 mg/kg
[6] = After Reperfusion, TRAM-34 40 mg/kg
[7] = Day-7 after MCAO, TRAM-34 10 mg/kg
[8] = Day-7 after MCAO, TRAM-34 40 mg/kg

Clc1ccccc1C(c1ccccc1)(c1ccccc1)n1cccn1 [TRAM-34, 1-[(2-chlorophenyl)diphenylmethyl]-1H-pyrazole]
microglia activation / mitogenic effect induced by human brain AβO (microglia): blocked
AβO-induced NFκB activation (p65-immunoreactive cells) (NFκB): prevented
LPS-induced NFκB activation (NFκB): not significantly
sensitivity of voltage-independent current component (KCa3.1): sensitive
dendritic morphology of neurons after CM from AβO-treated microglia co-incubated with inhibitor (hippocampal neurons): did not alter the dendritic morphology
levels of Ac-TN, MAP2, PSD95, and GRIP1 after CM from AβO-treated microglia co-incubated with inhibitor (hippocampal neurons; Western blot): did not cause significant decreases
AβO-CM-induced reduction of PSD95-immunoreactive puncta (hippocampal neurons; microglia co-treated with 20 μM doxycycline or 1 μM TRAM-34, FIG. 6D): prevented
fraction unbound [1]: 0.02
unbound (=free) fraction (plasma protein; rat plasma): 2.0±0.4% and 2%
plasma protein binding (plasma protein; rat plasma spiked with 50 and 100 μM): 98%
HCO3^− [2, 5]: 33.8 ± 6.4 mmol/L
Hemoglobin [2, 5]: 14.3 ± 1.5 g/dL
K^+ [2, 5]: 6.3 ± 1.1 mmol/L
pCO2 [2, 5]: 66.6 ± 28.3 mm Hg
pH [2, 5]: 7.34 ± 0.1
Hemoglobin [2, 6]: 14.5 ± 1.4 g/dL
K^+ [2, 6]: 5.7 ± 0.5 mmol/L
Na^+ [2, 6]: 135.5 ± 2.3 mmol/L
pCO2 [2, 6]: 60.8 ± 33.4 mm Hg
BUN [2, 7]: 18.7 ± 6.8 mg/dL
Glucose [2, 7]: 185.2 ± 41.2 mg/dL
HCO3^− [2, 7]: 29.7 ± 2.5 mmol/L
Hemoglobin [2, 7]: 12.7 ± 2.1 g/dL
K^+ [2, 7]: 4.8 ± 1.1 mmol/L
Na^+ [2, 7]: 137.7 ± 4.1 mmol/L
pCO2 [2, 7]: 58.1 ± 12.7 mm Hg
pH [2, 7]: 7.3 ± 0.06
BUN [2, 8]: 19.6 ± 4.7 mg/dL
Glucose [2, 8]: 201.1 ± 40.1 mg/dL
HCO3^− [2, 8]: 29.2 ± 1.3 mmol/L
Hemoglobin [2, 8]: 13.3 ± 1.5 g/dL
K^+ [2, 8]: 4.2 ± 0.3 mmol/L
Na^+ [2, 8]: 138.8 ± 3.5 mmol/L
pCO2 [2, 8]: 49.3 ± 7.3 mm Hg
pH [2, 8]: 7.4 ± 0.07
half-life [3]: 1 h
experimental autoimmune encephalomyelitis (EAE) [4]: treats
